Results published in patent US20240423957A1, “TOPICAL ANTI-INFLAMMATORY AND ANALGESIC COMPOSITIONS AND METHODS OF USE” (INSIGNIA PHARMACEUTICALS, LLC, priority 2023, published 2024).
“Also recorded” adds a separate entry of the source.

Legend:
[1] = system: Human osteoarthritic chondrocytes; assay: Real-time RT-PCR of Col2a1 mRNA in human osteoarthritic chondrocytes cultured 20 days; type: cell-based; details: delta-delta CT against GAPDH, actin, 18S rRNA
Protocol: The chondrocytes were layered on top of a hyaluronic acid hydrogel ([…]®, Sanofi-Aventis, United States) to promote a three-dimensional culture environment. Following 20 days, hyaluronidase was added to release the cells from the hydrogel, the cells were collected, and total RNA was isolated.

[2] = system: human chondrocyte spheroids; assay: Morphology of human chondrocyte spheroids in hyaluronic acid hydrogel; type: cell-based
[3] = cited from earlier work
[4] = system: Human osteoarthritic chondrocytes; assay: Immunostaining of human osteoarthritic chondrocytes cultured 24 days on hyaluronic acid hydrogel (SOX9, Col2a1, ACAN); type: cell-based
Text: The chondrocytes were layered on top of a hyaluronic acid hydrogel ([…]®, Sanofi-Aventis, United States) to promote a three-dimensional culture environment. Following 24 days, the cells were fixed with paraformaldehyde and immunostained for SOX9, Col2a1, and ACAN.

[5] = system: THP-1 cells; assay: Viability of PMA-differentiated THP-1 cells (optical density at 490 nanometers); type: cell-based, human
Protocol: (§1) The human monocyte cell line THP-1 was differentiated into macrophage-like cells with PMA for 72 hours. […] Cells were then activated with 100 nanograms per milliliter LPS for 24 hours followed by an additional hour with 10 millimolar adenosine triphosphate (ATP). IL-1beta release was quantified by enzyme-linked immunosorbent assay (ELISA).
Cell viability was also assessed by optical density at 490 nanometers (FIGS. 5A & 5B).

[6] = system: THP-1 macrophage-like cells; assay: IL-1beta release (ELISA) from PMA-differentiated THP-1 macrophage-like cells; type: cell-based, human; details: 0.2 to 6 millimolar; activation with 100 ng/mL LPS 24 hours then 10 millimolar ATP 1 hour (FIG. 4)
Protocol: as §1

[7] = high-density monolayers, ethanol vehicle, 0.1, 0.5 and 1 millimolar, 24 days

CCCCCCCCCC(=O)O [decanoic acid]
increase in Col2a1 mRNA ([1]; 0.5 millimolar): 1 fold | increase in Col2a1 mRNA ([1]; 1 millimolar): 7 fold | spheroid morphology ([2]; after 4 days of culture (FIGS. 2A & 2B)): promoted interconnected networks of spheroids; also recorded: generated interconnected networks that suspended the spheroids | spheroid morphology ([2]; after 20 days of culture (FIGS. 3A & 3B)): large spheroid development or condensation | pKa [3]: about 4.9 | ACAN immunostaining of chondrocyte spheroids ([4]; 1 millimolar): strong ACAN immunostaining | SOX9 staining of spheroids ([4]; 1 millimolar, 24 days): stained strongly for SOX9 | spheroid development or condensation ([4]; 1 millimolar, 24 days): enhanced spheroid development or condensation | concentration with peak Col2a1 staining ([4]; high-density monolayers): 0.5 millimolar | nuclear staining for SOX9 [4, 7]: enhanced nuclear staining for SOX9 in a dose-dependent manner | punctate staining for ACAN [4, 7]: dose-dependent punctate staining for ACAN | punctate staining for Col2a1 [4, 7]: dose-dependent punctate staining for Col2a1 | concentration with strongest ACAN staining ([4]; low-density monolayers): 1 millimolar | punctate immunostaining for Col2a1 ([4]; low-density monolayers, 1 millimolar): strong punctate immunostaining for Col2a1 | cell viability ([5]; 6 millimolar (FIGS. 5A & 5B)): unfavorable effect on viability; also recorded: significant decrease in viability | cell viability ([5]; concentrations below 6 millimolar (from 0.19 millimolar), relative to vehicle controls): no lower concentration of decanoic acid reduced cell viability | IL-1beta release [6]: dose-dependent inhibition of IL-1beta release; also recorded: dose-dependent inhibition of IL-1beta concentrations
